This passage reports GI50 and IC50 results from patent US9834571B2, “Compounds for inhibiting cell proliferation in EGFR-driven cancers” (ARIAD Pharmaceuticals, Inc., priority 2012, dated 2017).

Read-outs that look alike come from different tables or passages of the source.

Assay [1] addresses T1, BaF3 cells expressing the target EGFR mutations (Homo sapiens, UniProt P00533, T790M, cells depend on it, form not given).
T1 construct: IC50, BAF3 EGFR DEL T790M PURO POOL; other: BAF3 EGFR DEL T790M PURO POOL cells, MTT; other: BAF3 EGFR DEL T790M PURO POOL cells; MTT
Description: Antiproliferative activity (MTT) against BaF3 cells expressing the target EGFR mutations. The class given is cell-based. The note with it: BAF3 EGFR DEL T790M PURO POOL cells, read-out: IC50, BAF3 EGFR DEL T790M PURO POOL. A digest of the protocol: (§1)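 Viability by MTT colorimetry. Cells: BaF3 transfected with mutant EGFR, plus a wildtype-EGFR BaF3 counter-screen.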

In assay [2] the target is T2, BaF3 cells expressing the target EGFR mutations (Homo sapiens, UniProt P00533, T790M/L858R, cells depend on it).
T2 construct: IC50, BAF3 EGFR L858R-T790M PURO POOL; other: BAF3 EGFR L858R-T790M PURO POOL cells, MTT; IC50, BAF3 EGFR L858R-T790M PURO POOL; other: BAF3 EGFR L858R-T790M PURO POOL cells; MTT
T2 sequence (P00533 whole entry T790M/L858R): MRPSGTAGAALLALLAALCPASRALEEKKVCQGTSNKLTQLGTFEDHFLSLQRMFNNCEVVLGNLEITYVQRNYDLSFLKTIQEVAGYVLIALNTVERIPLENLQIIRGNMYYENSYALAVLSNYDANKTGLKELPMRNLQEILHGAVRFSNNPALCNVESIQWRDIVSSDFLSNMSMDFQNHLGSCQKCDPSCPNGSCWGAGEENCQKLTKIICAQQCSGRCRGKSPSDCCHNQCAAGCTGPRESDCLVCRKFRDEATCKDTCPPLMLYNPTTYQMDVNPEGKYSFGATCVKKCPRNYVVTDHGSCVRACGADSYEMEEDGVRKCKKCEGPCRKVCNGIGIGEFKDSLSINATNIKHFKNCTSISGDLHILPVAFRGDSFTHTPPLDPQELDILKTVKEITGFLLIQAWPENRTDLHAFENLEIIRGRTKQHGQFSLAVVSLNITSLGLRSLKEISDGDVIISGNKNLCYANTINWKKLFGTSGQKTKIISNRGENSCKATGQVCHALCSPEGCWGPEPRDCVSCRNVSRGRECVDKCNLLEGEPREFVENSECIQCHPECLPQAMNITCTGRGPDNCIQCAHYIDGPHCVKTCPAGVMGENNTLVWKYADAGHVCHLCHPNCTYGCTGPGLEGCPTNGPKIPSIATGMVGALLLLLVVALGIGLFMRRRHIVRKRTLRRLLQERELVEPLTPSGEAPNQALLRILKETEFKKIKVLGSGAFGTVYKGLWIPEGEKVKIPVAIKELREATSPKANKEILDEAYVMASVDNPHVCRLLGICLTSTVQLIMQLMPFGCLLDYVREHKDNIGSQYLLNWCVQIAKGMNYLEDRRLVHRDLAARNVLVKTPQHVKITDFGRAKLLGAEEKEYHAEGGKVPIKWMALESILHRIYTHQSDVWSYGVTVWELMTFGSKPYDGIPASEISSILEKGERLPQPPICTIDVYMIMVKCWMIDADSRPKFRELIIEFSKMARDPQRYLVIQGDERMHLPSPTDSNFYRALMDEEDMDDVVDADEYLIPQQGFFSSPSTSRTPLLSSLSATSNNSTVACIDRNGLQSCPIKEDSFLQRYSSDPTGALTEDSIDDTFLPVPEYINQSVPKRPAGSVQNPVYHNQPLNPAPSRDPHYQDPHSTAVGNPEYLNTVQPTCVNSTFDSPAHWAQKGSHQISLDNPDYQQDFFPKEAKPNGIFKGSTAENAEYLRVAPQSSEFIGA
The description is as above. The class given is cell-based. Conditions: BAF3 EGFR L858R-T790M PURO POOL cells, read-out: IC50, BAF3 EGFR L858R-T790M PURO POOL. A digest of the protocol:
as §1

The test system of assay [3] is BaF3 cells expressing wildtype EGFR. Description: Antiproliferative activity (MTT) against control BaF3 cells expressing wildtype EGFR. Type of assay: cell-based. Conditions: Mus musculus. The method in brief: as §1
In assay [4] the target is human EGFR (native sequence) (Homo sapiens, UniProt P00533). As to the kind of experiment: Kinase inhibitory activity against human EGFR (native sequence). The class given is biochemical. The note with it: 10 μM ATP, read-out: IC50 for kinase inhibition, EGFR. A digest of the protocol: (§2)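 Ten-point dose-response curves were run in singlicate from a 3 μM top concentration, with ATP at 10 μM.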
human EGFR (native sequence), sequence (P00533 25-1210): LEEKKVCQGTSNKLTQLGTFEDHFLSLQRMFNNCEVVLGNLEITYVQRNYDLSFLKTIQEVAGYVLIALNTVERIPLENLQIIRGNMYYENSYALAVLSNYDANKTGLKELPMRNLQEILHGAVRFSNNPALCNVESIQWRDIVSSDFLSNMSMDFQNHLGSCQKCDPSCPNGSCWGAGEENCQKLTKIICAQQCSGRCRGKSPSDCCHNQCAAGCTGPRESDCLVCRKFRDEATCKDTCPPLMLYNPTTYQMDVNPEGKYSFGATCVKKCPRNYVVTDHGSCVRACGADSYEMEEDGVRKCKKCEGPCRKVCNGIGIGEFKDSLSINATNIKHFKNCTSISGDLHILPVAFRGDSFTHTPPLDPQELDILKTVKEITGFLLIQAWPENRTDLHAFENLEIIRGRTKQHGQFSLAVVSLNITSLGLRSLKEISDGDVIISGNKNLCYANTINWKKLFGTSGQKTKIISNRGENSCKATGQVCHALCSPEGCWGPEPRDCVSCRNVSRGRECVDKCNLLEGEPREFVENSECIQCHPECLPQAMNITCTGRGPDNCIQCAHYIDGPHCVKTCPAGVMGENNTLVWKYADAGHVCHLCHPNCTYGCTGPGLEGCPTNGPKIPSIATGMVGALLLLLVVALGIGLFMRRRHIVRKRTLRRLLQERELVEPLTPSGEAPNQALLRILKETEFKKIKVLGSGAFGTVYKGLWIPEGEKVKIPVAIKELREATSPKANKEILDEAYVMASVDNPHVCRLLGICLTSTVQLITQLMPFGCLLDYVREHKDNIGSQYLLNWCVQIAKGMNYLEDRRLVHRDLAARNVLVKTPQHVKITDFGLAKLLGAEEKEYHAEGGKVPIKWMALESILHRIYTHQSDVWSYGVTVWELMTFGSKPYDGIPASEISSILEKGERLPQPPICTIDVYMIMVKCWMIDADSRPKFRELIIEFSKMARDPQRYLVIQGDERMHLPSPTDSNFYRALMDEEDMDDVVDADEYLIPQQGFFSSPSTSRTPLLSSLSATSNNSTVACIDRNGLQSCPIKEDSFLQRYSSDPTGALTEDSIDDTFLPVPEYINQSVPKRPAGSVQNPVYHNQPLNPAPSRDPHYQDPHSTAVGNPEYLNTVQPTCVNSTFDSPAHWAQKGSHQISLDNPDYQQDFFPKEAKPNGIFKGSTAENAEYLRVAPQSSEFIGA

In assay [5] the target is EGFR L858R/T790M (Homo sapiens, UniProt P00533, L858R/T790M). As to the kind of experiment: Kinase inhibitory activity against EGFR bearing the L858R/T790M double mutation. Conditions: 10 μM ATP, read-out: IC50 for kinase inhibition, EGFR L858R T790M. Type of assay: biochemical. A digest of the protocol:
as §2

The target of assay [6] is EGFR L858R (Homo sapiens, UniProt P00533, L858R). Description: Kinase inhibitory activity against EGFR bearing the L858R mutation. The class given is biochemical. The note with it: 10 μM ATP, read-out: IC50 for kinase inhibition, EGFR L858R. The method in brief:
as §2

[7] abbreviates: EGFR L858R/T790M double mutation.
The mark [8] stands for this setting: 10 pt curves, 3 μM top concentration.

EGFR L858R/T790M, sequence (P00533 25-1210 T790M/L858R): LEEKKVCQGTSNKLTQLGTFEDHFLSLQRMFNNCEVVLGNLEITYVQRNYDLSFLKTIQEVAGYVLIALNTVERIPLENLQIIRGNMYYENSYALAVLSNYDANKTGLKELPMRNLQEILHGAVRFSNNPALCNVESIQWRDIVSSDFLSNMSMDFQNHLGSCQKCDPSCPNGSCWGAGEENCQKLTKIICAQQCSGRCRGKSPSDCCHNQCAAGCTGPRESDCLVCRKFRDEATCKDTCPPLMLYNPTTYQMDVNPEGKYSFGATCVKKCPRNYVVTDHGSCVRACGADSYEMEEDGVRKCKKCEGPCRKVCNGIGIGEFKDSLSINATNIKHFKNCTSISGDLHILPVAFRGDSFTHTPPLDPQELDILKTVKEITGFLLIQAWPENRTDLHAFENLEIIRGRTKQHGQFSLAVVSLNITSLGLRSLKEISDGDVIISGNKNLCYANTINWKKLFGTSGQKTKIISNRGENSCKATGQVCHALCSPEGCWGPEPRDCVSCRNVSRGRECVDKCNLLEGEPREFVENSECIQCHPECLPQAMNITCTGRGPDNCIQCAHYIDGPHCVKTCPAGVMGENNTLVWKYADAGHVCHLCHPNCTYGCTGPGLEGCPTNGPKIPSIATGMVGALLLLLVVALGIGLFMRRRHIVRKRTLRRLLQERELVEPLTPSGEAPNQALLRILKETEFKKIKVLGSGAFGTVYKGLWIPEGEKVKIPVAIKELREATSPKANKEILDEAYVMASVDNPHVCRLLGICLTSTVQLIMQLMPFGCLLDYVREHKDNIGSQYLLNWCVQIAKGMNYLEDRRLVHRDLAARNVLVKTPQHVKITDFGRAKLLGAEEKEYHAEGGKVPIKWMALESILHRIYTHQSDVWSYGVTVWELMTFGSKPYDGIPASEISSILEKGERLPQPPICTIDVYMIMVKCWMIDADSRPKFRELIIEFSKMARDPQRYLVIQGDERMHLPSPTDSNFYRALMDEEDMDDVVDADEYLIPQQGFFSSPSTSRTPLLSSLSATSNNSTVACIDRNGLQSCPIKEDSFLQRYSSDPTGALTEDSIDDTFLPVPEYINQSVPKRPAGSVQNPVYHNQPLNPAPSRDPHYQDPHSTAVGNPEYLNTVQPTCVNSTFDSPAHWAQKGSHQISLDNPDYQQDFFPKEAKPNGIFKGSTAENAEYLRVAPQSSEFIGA
T1 sequence (P00533 with tags, fused parts or gaps DEL746-750/T790M, form open): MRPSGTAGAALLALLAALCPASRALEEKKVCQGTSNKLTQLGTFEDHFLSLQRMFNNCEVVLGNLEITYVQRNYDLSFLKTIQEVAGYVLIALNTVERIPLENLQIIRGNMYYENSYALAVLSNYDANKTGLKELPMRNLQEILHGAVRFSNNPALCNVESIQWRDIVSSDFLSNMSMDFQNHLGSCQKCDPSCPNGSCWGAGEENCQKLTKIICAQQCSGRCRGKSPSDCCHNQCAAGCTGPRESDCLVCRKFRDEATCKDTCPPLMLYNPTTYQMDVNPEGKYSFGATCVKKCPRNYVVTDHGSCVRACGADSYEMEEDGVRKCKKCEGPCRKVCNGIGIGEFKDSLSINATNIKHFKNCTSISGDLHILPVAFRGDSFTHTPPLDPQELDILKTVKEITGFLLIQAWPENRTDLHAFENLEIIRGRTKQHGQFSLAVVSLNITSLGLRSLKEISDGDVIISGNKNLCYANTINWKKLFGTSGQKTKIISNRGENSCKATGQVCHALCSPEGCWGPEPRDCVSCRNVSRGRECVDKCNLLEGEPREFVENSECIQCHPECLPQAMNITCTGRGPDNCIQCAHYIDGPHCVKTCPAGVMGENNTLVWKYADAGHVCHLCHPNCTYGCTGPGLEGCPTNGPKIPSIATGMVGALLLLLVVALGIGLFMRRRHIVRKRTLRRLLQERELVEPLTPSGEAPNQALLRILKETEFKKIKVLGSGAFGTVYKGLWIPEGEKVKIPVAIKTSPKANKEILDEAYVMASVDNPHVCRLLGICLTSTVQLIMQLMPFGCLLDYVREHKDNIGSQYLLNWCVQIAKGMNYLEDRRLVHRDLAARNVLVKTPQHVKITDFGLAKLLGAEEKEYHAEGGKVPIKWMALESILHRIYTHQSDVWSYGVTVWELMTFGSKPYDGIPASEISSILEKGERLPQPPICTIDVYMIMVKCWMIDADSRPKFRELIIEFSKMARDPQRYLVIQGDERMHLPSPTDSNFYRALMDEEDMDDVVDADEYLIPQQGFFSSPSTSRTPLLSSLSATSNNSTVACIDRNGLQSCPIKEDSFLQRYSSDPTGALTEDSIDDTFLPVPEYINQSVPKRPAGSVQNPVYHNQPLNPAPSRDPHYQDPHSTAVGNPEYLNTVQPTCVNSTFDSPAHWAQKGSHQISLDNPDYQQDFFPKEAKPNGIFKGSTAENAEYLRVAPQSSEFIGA

In general, IC50 refers to the concentration at which inhibition is half-maximal. For the compound `C=CC(=O)Nc1ccc(OC)c(Nc2ncc(Cl)c(Nc3ccc(OCC4CCOCC4)cc3P(C)(C)=O)n2)c1` [Example 100, N-(3-((5-chloro-4-((2-(dimethylphosphoryl)-4-((tetrahydro-2H-pyran-4-yl)methoxy)phenyl)amino)pyrimidin-2-yl)amino)-4-methoxyphenyl)acrylamide], the GI50 in assay [1] and in assay [2] was < 50 nM throughout. For the same compound, the IC50 in assay [3] (BAF3 PARENTAL cells (control)) was ≥ 250 nM; in assay [4] (human EGFR native sequence), 50 to 100 nM; in assay [5] (setting [7]) it was < 50 nM; in assay [6] (EGFR L858R), < 50 nM.

For the compound `C=CC(=O)Nc1ccc(OC)c(Nc2ncc(C#N)c(Nc3ccccc3P(C)(C)=O)n2)c1` [Example 139, N-(3-((5-cyano-4-((2-(dimethylphosphoryl)phenyl)amino)pyrimidin-2-yl)amino)-4-methoxyphenyl)acrylamide], the results for the GI50 in assay [1] and in assay [2] were 101 to 250 nM and ≥ 250 nM, respectively. The IC50 is ≥ 250 nM in assay [3] (BAF3 parental cells), < 50 nM in assay [4] (setting [8]), < 50 nM in assay [5] (setting [8]) and < 50 nM in assay [6] (setting [8]).

Consider `C=CC(=O)Nc1ccc(CC)c(Nc2ncc(Cl)c(Nc3ccccc3P(C)(C)=O)n2)c1` [Example 135, N-(3-((5-chloro-4-((2-(dimethylphosphoryl)phenyl)amino)pyrimidin-2-yl)amino)-4-ethylphenyl)acrylamide], for which the GI50 in assay [1] and in assay [2] was < 50 nM in each case. The IC50 is ≥ 250 nM in assay [3] (BAF3 parental cells), < 50 nM in assay [4] (setting [8]), < 50 nM in assay [5] (setting [8]) and < 50 nM in assay [6] (setting [8]).

With `COc1ccc(NC(=O)C2=CCCN(C)C2)cc1Nc1ncc(Cl)c(Nc2ccccc2P(C)(C)=O)n1` [Example 84, N-(3-((5-chloro-4-((2-(dimethylphosphoryl)phenyl)amino)pyrimidin-2-yl)amino)-4-methoxyphenyl)-1-methyl-1,2,5,6-tetrahydropyridine-3-carboxamide], the GI50 in assay [1] and in assay [2] was ≥ 250 nM in each case. In addition, the IC50 was ≥ 250 nM in assay [3] (BAF3 PARENTAL cells (control)), ≥ 250 nM in assay [4] (human EGFR native sequence), < 50 nM in assay [5] (setting [7]) and < 50 nM in assay [6] (EGFR L858R).

For the compound `C=CC(=O)Nc1cc(Nc2ncc(Cl)c(Nc3ccccc3P(C)(C)=O)n2)c(OC)cc1C#CCN(C)C(C)C` [Example 166, N-(5-((5-chloro-4-((2-(dimethylphosphoryl)phenyl)amino)pyrimidin-2-yl)amino)-2-(3-(isopropyl(methyl)amino)prop-1-yn-1-yl)-4-methoxyphenyl)acrylamide], the GI50 in assay [1] and in assay [2] was < 50 nM in each case. Besides, the IC50 in assay [3] (BAF3 parental cells) was ≥ 250 nM; in assay [4] (setting [8]), < 50 nM; in assay [5] (setting [8]), < 50 nM; in assay [6] (setting [8]) it was < 50 nM.

Turning to `COc1cc(F)c(NC(=O)C#CCCN2CCCCC2)cc1Nc1ncc(Cl)c(Nc2ccccc2P(C)(C)=O)n1` [Example 88, N-(5-((5-chloro-4-((2-(dimethylphosphoryl)phenyl)amino)pyrimidin-2-yl)amino)-2-fluoro-4-methoxyphenyl)-5-(piperidin-1-yl)pent-2-ynamide], the GI50 in assay [1] and in assay [2] was < 50 nM throughout. Further, the IC50 is ≥ 250 nM in assay [3] (BAF3 PARENTAL cells (control)), < 50 nM in assay [4] (human EGFR native sequence), < 50 nM in assay [5] (setting [7]) and < 50 nM in assay [6] (EGFR L858R).

In the case of `C=CC(=O)Nc1cc(Nc2ncc(Cl)c(Nc3ccccc3P(C)(C)=O)n2)c(OC)cc1N1CCC(N(C)C)CC1` [Example 23, N-(5-((5-chloro-4-((2-(dimethylphosphoryl)phenyl)amino)pyrimidin-2-yl)amino)-2-(4-(dimethylamino)piperidin-1-yl)-4-methoxyphenyl)acrylamide], the GI50 was < 50 nM in assay [1] and 101 to 250 nM in assay [2]. For the same compound, the 50% inhibitory concentration (IC50) in assay [3] (BAF3 PARENTAL cells (control)) was ≥ 250 nM; in assay [4] (human EGFR native sequence), < 50 nM; in assay [5] (setting [7]) it was < 50 nM; in assay [6] (EGFR L858R) it was < 50 nM.

Turning to `COc1ccc(NC(=O)/C=C\C(=O)NCCN(C)C)cc1Nc1ncc(Cl)c(Nc2ccccc2P(C)(C)=O)n1` [Example 64, N1-(3-((5-chloro-4-((2-(dimethylphosphoryl)phenyl)amino)pyrimidin-2-yl)amino)-4-methoxyphenyl)-N4-(2-(dimethylamino)ethyl)maleamide], the GI50 in assay [1] and in assay [2] was ≥ 250 nM throughout. In addition, the IC50 in assay [3] (BAF3 PARENTAL cells (control)) is ≥ 250 nM; in assay [4] (human EGFR native sequence), ≥ 250 nM; in assay [5] (setting [7]), < 50 nM; in assay [6] (EGFR L858R), < 50 nM.

On to `C=C(CN1CCN(C(C)C)CC1)C(=O)Nc1ccc(OC)c(Nc2ncc(Cl)c(Nc3ccccc3P(C)(C)=O)n2)c1` [Example 50, N-(3-((5-chloro-4-((2-(dimethylphosphoryl)phenyl)amino)pyrimidin-2-yl)amino)-4-methoxyphenyl)-2-((4-isopropylpiperazin-1-yl)methyl)acrylamide], for which the GI50 in assay [1] and in assay [2] was < 50 nM in each case. Also, the IC50 in assay [3] (BAF3 PARENTAL cells (control)) is ≥ 250 nM; in assay [4] (human EGFR native sequence), 50 to 100 nM; in assay [5] (setting [7]), < 50 nM; in assay [6] (EGFR L858R), < 50 nM.

As for `C=C(CN1CCN(CCO)CC1)C(=O)Nc1ccc(OC)c(Nc2ncc(Cl)c(Nc3ccccc3P(C)(C)=O)n2)c1` [Example 52, N-(3-((5-chloro-4-((2-(dimethylphosphoryl)phenyl)amino)pyrimidin-2-yl)amino)-4-methoxyphenyl)-2-((4-(2-hydroxyethyl)piperazin-1-yl)methyl)acrylamide], the GI50 in assay [1] and in assay [2] was < 50 nM in each case. In addition, the IC50 in assay [3] (BAF3 PARENTAL cells (control)) is ≥ 250 nM; in assay [4] (human EGFR native sequence) it was < 50 nM; in assay [5] (setting [7]), < 50 nM; in assay [6] (EGFR L858R), < 50 nM.

As for `C=CC(=O)Nc1cc(Nc2ncc(Cl)c(Nc3ccccc3P(C)(C)=O)n2)c(OC)cc1N1CC[C@H](N(C)C)C1` (stereo in doubt) [Example 29, rac-(R)-N-(5-((5-chloro-4-((2-(dimethylphosphoryl)phenyl)amino)pyrimidin-2-yl)amino)-2-(3-(dimethylamino)pyrrolidin-1-yl)-4-methoxyphenyl)acrylamide], the GI50 in assay [1] and in assay [2] was < 50 nM throughout. For the same compound, the 50% inhibitory concentration (IC50) in assay [3] (BAF3 PARENTAL cells (control)) is ≥ 250 nM; in assay [4] (human EGFR native sequence) it was < 50 nM; in assay [5] (setting [7]), < 50 nM; in assay [6] (EGFR L858R) it was < 50 nM.

Take `C=CC(=O)Nc1cc(Nc2ncc(Cl)c(Nc3ccccc3P(C)(C)=O)n2)c(OC)cc1OC(COCC)CN(C)C` (stereo not drawn) [Example 142, N-(5-((5-chloro-4-((2-(dimethylphosphoryl)phenyl)amino)pyrimidin-2-yl)amino)-2-((1-(dimethylamino)-3-ethoxypropan-2-yl)oxy)-4-methoxyphenyl)acrylamide]: the GI50 in assay [1] and in assay [2] was < 50 nM in each case. The IC50 is ≥ 250 nM in assay [3] (BAF3 parental cells), < 50 nM in assay [4] (setting [8]), < 50 nM in assay [5] (setting [8]) and < 50 nM in assay [6] (setting [8]).

Take `C=CC(=O)Nc1cc(Nc2ncc(Cl)c(Nc3ccccc3P(C)(C)=O)n2)c(OC)cc1N1CCC(N2CCCN(C)CC2)CC1` [Example 71, N-(5-((5-chloro-4-((2-(dimethylphosphoryl)phenyl)amino)pyrimidin-2-yl)amino)-4-methoxy-2-(4-(4-methyl-1,4-diazepan-1-yl)piperidin-1-yl)phenyl)acrylamide]: the GI50 in assay [1] fell in the range of 50 to 100 nM; in assay [2], 101 to 250 nM. The IC50 in assay [3] (BAF3 PARENTAL cells (control)) was ≥ 250 nM; in assay [4] (human EGFR native sequence) it was < 50 nM; in assay [5] (setting [7]) it was < 50 nM; in assay [6] (EGFR L858R), < 50 nM.

Take `C=CC(=O)Nc1cc(Nc2ncc(Cl)c(Nc3ccccc3P(C)(C)=O)n2)c(Cl)cc1C#CCN(C)C` [Example 156, N-(4-chloro-5-((5-chloro-4-((2-(dimethylphosphoryl)phenyl)amino)pyrimidin-2-yl)amino)-2-(3-(dimethylamino)prop-1-yn-1-yl)phenyl)acrylamide]: the GI50 in assay [1] and in assay [2] was < 50 nM each time. Further, the concentration for half-maximal inhibition (IC50) in assay [3] (BAF3 parental cells) is ≥ 250 nM; in assay [4] (setting [8]), < 50 nM; in assay [5] (setting [8]), < 50 nM; in assay [6] (setting [8]) it was < 50 nM.
